Earlier results in patent US20250002910A1, “TREATMENT OF COMPLEMENT-MEDIATED DISORDERS” (Apellis Pharmaceuticals, Inc., priority 2021, published 2025).

Tested on: complement activation
Settings: relative to compstatin amidated at the C-terminus; published data

Substance	Activity over compstatin
Ac-ICV(Bpa)QDWGAHRCT-COOH [Ac-V4(Bpa)/H9A-OH]	49x more
Ac-ICV(1-Nal)QDWGAHRCT-COOH [AcV4(1-Nal)/H9A-OH]	30x more
Ac-ICVYQDWGAHRCT-CONH2 [Ac-V4Y/H9A]	14x more
Ac-ICVWQDWGAHRCT-CONH2 (Ac-ICVWQDWGAHRCT-NH2; not fully specified (bridges); printed as Ac-ICVWQDWGAHRCT-CONH2; cysteine pairing not given here) [Ac-V4W/H9A]	45x more
Ac-ICVWQDWGAHRCdT-COOH [Ac-V4W/H9A/T13dT-OH]	55x more
Ac-ICVVQDWGHHRCT-CONH2 [Ac-compstatin]	3x more
Ac-ICV(2-Nal)QDWGAHRCT-CONH2 [Ac-V4(2-Nal)/H9A]	99x more
Ac-ICVWQD(5fW)GAHRCT-CONH2 [Ac-V4W/W7(5fW)/H9A]	121x more
H-GICV(6fW)QD(6fW)GAHRCTN-COOH [+G/V4(6fW)/W7(6fW)H9A+N-OH]	126x more
Ac-ICV(2-Nal)QDWGAHRCT-COOH [AcV4(2-Nal)/H9A-OH]	38x more
Ac-ICV(Bpa)QDWGAHRCT-CONH2 [Ac-V4(Bpa)/H9A]	86x more
Ac-ICV(2-IgI)QDWGAHRCT-CONH2 [Ac-V42lgl/H9A]	39x more
Ac-ICV(2-IgI)QDWGAHRCT-COOH [Ac-V42lgl/H9A-OH]	37x more
Ac-ICVDhtQDWGAHRCT-COOH [Ac-V4Dht/H9A-OH]	5x more
